Like-named read-outs stand apart in the source and are kept apart here. Where a SMILES comes first, the peptide text is derived from it. Bridges are numbered along the chain shown (N, C = ends).
Tests used:
[1] = tested on: apElevR3; test: IP1 accumulation assay, apElevR3 in CHO-K1 cells; assay type: cell-based, Aplysia californica; settings: for apElevR3 Log[EC50] (M): logarithm of molar EC50, IP1 accumulation, CHO-K1 transiently expressing apElevR3 (pcDNA3.1(+)), no Gα16 co-transfection, peptide 10^-12 to 10^-4 M, 1 h incubation, mean ± SEM, n = 3, NA = no activation, SEM
From the text: (§1) To determine whether the Aplysia elevenin can activate the putative elevenin receptors, we cloned apElevRs to pcDNA3.1 (+) plasmid and transfected the three apElevRs in CHO-K1 cells. We used an IP1 accumulation assay to measure the concentration of IP1, which is a by-product in the Gαq signaling pathway, to provide evidence for the activation of receptors by elevenin. […] Initially, we used the elevenin peptide at two concentrations of 10^–11 M and 10^–4 M to screen apElevR1, apElevR2, and apElevR3. […] Further, we used different concentration gradients of elevenin, ranging from 10^–12 to 10^–4 M, to generate the dose–response curves (Fig. 8B–E).
(§2) Gαq-coupled GPCRs stimulate PLC-β activity, resulting in increased cellular D-Myo-Inositol 1-Phosphate (IP1). When the G protein-coupled receptor (GPCR) expressed in CHO-K1 cells (Procell, CL-0062) is activated, it is generated by the Gαq pathway through the appropriate ligand, and IP3 is formed which is degraded to IP1. Therefore, IP1 can be used as an alternative to IP3. First, the putative receptor cloned into the mammalian expression vector pcDNA3.1( +) of Aplysia was transiently expressed in CHO-K1 cells. CHO-K1 cells were cultured in F-12 K medium (Gibco, 21,127–022) containing 10% fetal bovine serum (Genial, G11-70,500) at 37 °C and 5% CO2. When the cell density in the 6-well plate reached 70–90%, 1.5 μg of putative receptor plasmid [in pcDNA3.1( +)] was mixed with 200 μl buffer (Polyplus) in a 1.5 ml EP tube and incubated at room temperature for 10 min. The DNA/Transfection reagent (Polyplus) mixture was then added dropwise to the 6-well plate, mixed gently, and the cells were incubated overnight at 37 °C and 5% CO2. The next day, cells were digested, counted, diluted to a density of 40,0000 cells/ml, and replated in a white 384-well assay plate (Greiner bio-one, B14061RI), each well inoculated with the diluted liquid 50 μl and incubate overnight at 37 °C in 5% CO2. On the third day, the CHO cells were incubated for 1 h after adding peptide. The activation of putative receptors was detected by monitoring IP1 accumulation using the IP1 detection kit in Tecan Spark (Cisbio, 62IPAPEB). All procedures were performed according to the manufacturer's instructions for the IP1 assay kit. The elevenin peptide and analogs were synthesized by Sangon Biotech or Guoping Pharmaceutical (Supplementary Fig. 4) and were aliquoted in 50 nmol EP tubes and stored at -20 °C until use.
(§3) Dose–response curves and bar graphs for experimental data were plotted using Prism software (GraphPad). Data are expressed as the mean ± SEM. Final EC50 values are rounded to two significant figures. All experimental data were taken from individual animals or preparations, and n refers to the number of preparations. Data were considered significant when P < 0.05. Statistical tests were performed using Prism software. They included Student’s t-test (two groups) and one-way ANOVA (three or more groups).

[2] = tested on: apElevR1; test: IP1 accumulation assay, apElevR1 in CHO-K1 cells; assay type: cell-based, Aplysia californica; settings: for apElevR1 Log[EC50] (M): logarithm of molar EC50, IP1 accumulation, CHO-K1 transiently expressing apElevR1 (pcDNA3.1(+)), no Gα16 co-transfection, peptide 10^-12 to 10^-4 M, 1 h incubation, mean ± SEM, n = 3, NA = no activation, SEM
From the text: as §1, §2, §3

[3] = tested on: apElevR2; test: IP1 accumulation assay, apElevR2 in CHO-K1 cells; assay type: cell-based, Aplysia californica; settings: for EC50 / apElevR2 Log[EC50] (M): IP1 accumulation, NA = no activation; for apElevR2 Log[EC50] (M): logarithm of molar EC50, CHO-K1 transiently expressing apElevR2 (pcDNA3.1(+)), no Gα16 co-transfection, peptide 10^-12 to 10^-4 M, 1 h incubation, mean ± SEM, n = 3, SEM
From the text: as §1, §2, §3

[4] = tested on: AstC-R; settings: peptide could activate AstC-R; cited from earlier work
From the text: It is notable that there are 6 residu ...

[5] = biological target: elevenin receptor (first of two listed); settings: CHO cells, Ca2+ response, no Gα16, cited from earlier work
From the text: (§4) Although the function of elevenin was first studied in C.elegans, its actual elevenin receptors have not yet been found in this species. In fact, prior to our work, there are a total of 6 elevenin receptors that have been described (Fig. 7). First, there are two GPCRs that have been deorphanized as elevenin receptors in both annelid Platynereis and arthropod Ixodes[2],[9]^. There is a single elevenin receptor in Nilaparvata lugens or Bombus terrestris[23] although we could not find the sequence for Nilaparvata NlA42 in NCBI. Second, in annelid Platynereis, the EC50 values of two elevenin recep ...

[6] = biological target: elevenin receptor (second of two listed); settings: CHO cells, Ca2+ response, no Gα16, cited from earlier work
From the text: as §4

[7] = CHO-K1 transiently expressing apElevR2, no Gα16, 1 h peptide incubation, average of n = 3, rounded to two significant figures, read-out: apElevR2 [EC50]
[8] = screen at 10^-4 M compared with 10^-11 M peptide, CHO-K1, n = 3, Student's t-test (Fig. 8A)

Compound | apElevR3 Log[EC50] (M) [1] [M] | apElevR1 Log[EC50] (M) [2] [M] | apElevR2 Log[EC50] (M) [3] [M] | further results
CC(C)[C@@H]1NC(=O)[C@H](Cc2ccccc2)NC(=O)[C@H](CCCNC(=N)N)NC(=O)[C@H]([C@@H](C)O)NC(=O)[C@@H](NC(=O)[C@@H](N)CC(=O)O)CSSC[C@@H](C(=O)N[C@@H](CCCNC(=N)N)C(=O)NCC(=O)O)NC(=O)[C@H](C)NC(=O)[C@@H]2CCCN2C(=O)[C@H](C)NC(=O)[C@H](Cc2ccccc2)NC1=O [Elevenin5-17] (H-DCTRFVFAPACRG-OH; disulfide 2-11; N-terminus and C-terminus assumed) | -5.52±0.18 | -5.11±0.28 | -4.31±0.65 | EC50 [3, 7]: > 10000 nM
CC(C)[C@@H]1NC(=O)[C@H](Cc2ccccc2)NC(=O)[C@H](CCCNC(=N)N)NC(=O)[C@H]([C@@H](C)O)NC(=O)[C@@H](N)CSSC[C@@H](C(=O)O)NC(=O)[C@H](C)NC(=O)[C@@H]2CCCN2C(=O)[C@H](C)NC(=O)[C@H](Cc2ccccc2)NC1=O [Elevenin6-15] (H-CTRFVFAPAC-OH; disulfide 1-10) | -5.20±0.36 | – | – | Effect on apElevR1 (IP1 dose-response), in words ([2]; dose-response, CHO-K1, n = 3 (Fig. 10A, G)): did not have any effect; EC50 [3, 7]: > 10000 nM
CC[C@H](C)[C@H](NC(=O)[C@H](CCCNC(=N)N)NC(=O)[C@@H]1CCCN1C(=O)[C@@H](N)CCCNC(=N)N)C(=O)N[C@@H](CC(=O)O)C(=O)N[C@H]1CSSC[C@@H](C(=O)N[C@@H](CCCNC(=N)N)C(=O)NCC(=O)N[C@H](C(=O)N[C@@H](CO)C(=O)N[C@@H](C)C(=O)O)C(C)C)NC(=O)[C@H](C)NC(=O)[C@@H]2CCCN2C(=O)[C@H](C)NC(=O)[C@H](Cc2ccccc2)NC(=O)[C@H](C(C)C)NC(=O)[C@H](Cc2ccccc2)NC(=O)[C@H](CCCNC(=N)N)NC(=O)[C@H]([C@@H](C)O)NC1=O [Elevenin] (H-RPRIDCTRFVFAPACRGVSA-OH; disulfide 6-15; N-terminus and C-terminus assumed) | -8.51±0.37 | -7.60±0.40 | -8.93±0.34 | Activation of apElevR3 in screening (IP1), in words [1, 8]: could not activate; Activation of apElevR1 in screening (IP1), in words [2, 8]: could not activate; Activation of apElevR2 in screening (IP1), in words [3, 8]: could not activate
CC[C@H](C)[C@H](NC(=O)[C@H](CCCNC(=N)N)NC(=O)[C@@H]1CCCN1C(=O)[C@@H](N)CCCNC(=N)N)C(=O)N[C@@H](CC(=O)O)C(=O)N[C@H]1CSSC[C@@H](C(=O)N[C@@H](CCCNC(=N)N)C(=O)NCC(=O)N[C@H](C(=O)N[C@@H](CO)C(=O)N[C@@H](C)C(=O)O)C(C)C)NC(=O)[C@H](C)NC(=O)[C@@H]2CCCN2C(=O)[C@H](C)NC(=O)[C@H](C)NC(=O)[C@H](C(C)C)NC(=O)[C@H](Cc2ccccc2)NC(=O)[C@H](CCCNC(=N)N)NC(=O)[C@H]([C@@H](C)O)NC1=O [[Ala^11]Elevenin] (H-RPRIDCTRFVAAPACRGVSA-OH; disulfide 6-15; N-terminus and C-terminus assumed) | -6.55±0.21 | -6.97 ±0.20 | -6.62±0.10 | –
CC[C@H](C)[C@H](NC(=O)[C@H](CCCNC(=N)N)NC(=O)[C@@H]1CCCN1C(=O)[C@@H](N)CCCNC(=N)N)C(=O)N[C@@H](CC(=O)O)C(=O)N[C@H]1CSSC[C@@H](C(=O)N[C@@H](CCCNC(=N)N)C(=O)NCC(=O)N[C@H](C(=O)N[C@@H](CO)C(=O)N[C@@H](C)C(=O)O)C(C)C)NC(=O)[C@H](C)NC(=O)[C@H](C)NC(=O)[C@H](C)NC(=O)[C@H](Cc2ccccc2)NC(=O)[C@H](C(C)C)NC(=O)[C@H](Cc2ccccc2)NC(=O)[C@H](CCCNC(=N)N)NC(=O)[C@H]([C@@H](C)O)NC1=O [[Ala^13]Elevenin] (H-RPRIDCTRFVFAAACRGVSA-OH; disulfide 6-15; N-terminus and C-terminus assumed) | -6.42±0.34 | -6.92±0.13 | -4.48±0.21 | EC50 ([3]; Table 2 prints no unit, the same values are in nM in Fig. 9J, CHO-K1, n = 3, read-out: EC50 values on apElevR2 (Table 2)): > 10000 nM
AstC without a disulfide bond: Aplysia allatostatin-C (SHYSSMCMFNVVACY) without a disulfide bond (no disulfide bond) | – | – | – | EC50 value on AstC-R compared to AstC with the disulfide bond, in words [4]: significantly higher
LDCRKYPFYYRCRGISA [Ixodes elevenin, elevenin of arthropod Ixodes scapularis, ligand of its two elevenin receptors (literature)] | – | – | – | EC50 ([5]; Ixodes): 0.01 nM; EC50 ([6]; Ixodes): 5.59 nM
PDCTRFVFHPSCRGVAA [Platynereis elevenin, elevenin of annelid Platynereis dumerilii, ligand of its two elevenin receptors (literature)] | – | – | – | EC50 ([5]; Platynereis): 62 nM; EC50 ([6]; Platynereis): 1.3 nM

Reference: PMC10175484, “Identification of three elevenin receptors and roles of elevenin disulfide bond and residues in receptor activation in Aplysia californica” (Scientific Reports, 2023)
